Read-outs that look alike come from different tables or passages of the source.
Tests used:
[1] = Biliary excretion in rats; assay type: in vivo, rat
Protocol: (§1) Solutions of palmitoyl carnitine, β-cyclodextrin and an [R-(R*,R*)]-3-[(2-hydroxypropyl)amino]-3-methyl-N-[2,3,4,5-tetrahydro-2-oxo-1-[[2'-(H-tetrazol-5-yl)[1,1'-biphenyl]-4-yl]methyl]-1H-1-benzazepin-3-yl]butanamide having the following structure: [drawing 1] hereinafter referred to as [R-(R*,R*)]-3-[(2-hydroxypropyl)amino]-3-methyl-N-[2,3,4,5-tetrahydro-2-oxo-1-[[2'-(H-tetrazol-5-yl)[1,1'-biphenyl]-4-yl]methyl]-1H-1-benzazepin-3-yl]butanamide were prepared such that [R-(R*,R*)]-3-[(2-hydroxypropyl)amino]-3-methyl-N-[2,3,4,5-tetrahydro-2-oxo-1-[[2'-(H-tetrazol-5-yl)[1,1'-biphenyl]-4-yl]methyl]-1H-1-benzazepin-3-yl]butanamide was maintained at 2 mg/ml. All solutions were prepared in Krebs-Henseleit buffer at Ph 7.4. The solutions were administered to ligated sections of the jejunum of anesthetized rats. […] The bile was collected in 15 minute intervals for 3.5 hours and analyzed for [R-(R*,R*)]-3-[(2-hydroxypropyl)amino]-3-methyl-N-[2,3,4,5-tetrahydro-2-oxo-1-[[2'-(H-tetrazol-5-yl)[1,1'-biphenyl]-4-yl]methyl]-1H-1-benzazepin-3-yl]butanamide content. From the bile volume, the total amount of drug eliminated could be calculated. After an IV dose, 92% of the drug is found in the bile. Therefore all value were divided by 0.92 to give true absorption values. These values are given in table 1, along with standard deviations which were observed.

[2] = Jejunal absorption of drug solutions from ligated sections of the jejunum of anesthetized rats (bile collection); assay type: in vivo; details: rat, pH 7.4, solution 2 mg/ml drug, read-out: % of Dose Absorbed Relative to IV (+/- s.d.)
Protocol: as §1

[3] = Plasma/blood exposure after administration of compressed tablets to the duodenum of dogs; assay type: in vivo, dog; details: tablet, 1 mg/kg drug, 10 mg/kg palmitoyl carnitine chloride, four hours
Protocol: Compressed tablets were prepared with and without 112 mg β-cyclodextrin (7.5 mg/kg), containing 15 mg of [R-(R*,R*)]-3-[(2-hydroxypropyl)amino]-3-methyl-N-[2,3,4,5-tetrahydro-2-oxo-1[[2'-(H-tetrazol-5-yl)[1,1'-biphenyl]-4-yl]methyl]-1H-1-benzazepin-3-yl]butanamide (1 mg/kg) and 150 mg palmitoyl carnitine chloride (10 mg/kg) in a tablet matrix containing 203 mg microcrystalline cellulose, 100 mg lactose, 20 mg corn starch and 2 mg magnesium stearate. The tablets were administered to the duodenum of dogs through a surgically prepared fistual. Serial blood samples were taken from the dogs for four hours after dosing and analyzed for [R-(R*,R*)]-3-[(2-hydroxypropyl)amino]-3-methyl-N -[2,3,4,5-tetra-hydro-2-oxo-1-[[2'-(H-tetrazol-5-yl)[1,1'-biphenyl]-4-yl]methyl]-1H-1-benzazepin-3-yl]butanamide. The results given as resulting area under [R-(R*,R*)]-3-[(2-hydroxy-propyl)amino] -3-methyl-N-[2,3,4,5-tetrahydro-2-oxo- 1-[[2'-(H-tetrazol-5-yl)[1,1'-biphenyl]-4-yl]methyl]-1H-1-benzazepin-3-yl]butanamide concentration-time curve ± standard deviations, are 361±168 ng min/ml in the absence of β-cyclodextrin and […] in the presence of β-cyclodextrin.

[4] = Absorption of solid formulations (powders, tablets, beads) from unligated sections of the jejunum of anesthetized rats (bile collection); assay type: in vivo; details: rat
Protocol: as §1
Powders were prepared so as to contain in each dose, 2 mg/kg of [R-(R*,R*)]-3-[(2-hydroxypropyl)amino]-3-methyl-N-[2,3,4,5-tetrahydro-2-oxo-1-[[2'-(H-tetrazol-5-yl)[1,1'-biphenyl]-4-yl]methyl]-1H-1-benzazepin-3-yl]butanamide, 0-10 mg/kg palmitoyl carnitine chloride, 0-15 mg/kg β-cyclodextrin and microcrystalline cellulose. The powders were administered to unligated sections of the jujunum of anesthetized rats. Bile was collected and the absorption of [R-(R*,R*)]-3-[(2-hydroxypropyl)amino]-3-methyl-N-[2,3,4,5-tetrahydro-2-oxo-1-[[2'-(H-tetrazol-5-yl)[1,1'-biphenyl]-4-yl]methyl]-1H-1-benzazepin-3-yl]butanamide was determined as in Example 1. The results of these studies are provided in Table 2, along with observed standard deviations.
Lyophilized preparations of [R-(R*,R*)]-3-[(2-hydroxypropyl)amino]-3-methyl-N-[2,3,4,5-tetrahydro-2-oxo-1-[[2'-(H-tetrazol-5-yl)[1,1'-biphenyl]-4-yl]methyl]-1H-1-benzazepin-3-yl]butanamide were prepared from solutions containing 2 mg/ml of [R-(R*,R*)]-3-[(2-hydroxypropyl)amino]-3-methyl-N-[2,3,4,5-tetrahydro-2-oxo-1-[[2'-(H-tetrazol-5-yl)[1,1'-biphenyl]-4-yl]methyl]-1H-1-benzazepin-3-yl]butanamide and 15 mg/ml of β-cyclodextrin or 20 mg/ml hydroxypropyl-β-cyclodextrin. The lyophilized preparations were mixed with palmitoyl carnitine chloride and microcrystalline cellulose and compressed into tablets. The tablets contained 2 mg/kg of [R-(R*,R*)]-3-[(2-hydroxypropyl)amino]-3 -methyl -N-[2,3,4,5,-tetrahydro-2-oxo-1-[[2'-(H-tetrazol-5-yl)[1,1'biphenyl]-4-yl]methyl-1H1-benzazepin-3-yl]butanamide and 10 mg/kg palmitoyl carnitine chloride. The tablets were administered to the unligated sections of the jejunum of anesthetized rats. Bile was collected and the absorption of [R-(R*,R*)]-3-[(2-hydroxypropyl) amino]-3 -methyl -N- [2,3,4,5 -tetrahydro-2-oxo-1-[[2'-(H-tetrazol-5-yl)[1,1'-biphenyl]-4-yl]methyl]-1H- 1-benzazepin-3-yl]butanamide determined as in Example 1. The percentage absorption of [R-(R*,R*)]-3-[(2-hydroxypropyl)amino]-3-methyl-N-[2,3,4,5-tetrahydro-2-oxo-1-[[2'-(H-tetrazol-5-yl)[1,1'-biphenyl]-4-yl]methyl]-1H-1-benzazepin-3-yl]butanamide from the lyophilized formulation containing β-cyclodextrinwas 28.2±18.3 and from the hydroxpropyl-β-cyclodextrin, 7.5±6.2.
Fifteen parts of water were added to a mixture of [R-(R*,R*)]-3-[(2-hydroxypropyl)amino]-3-methyl-N-[2,3,4,5-tetrahydro-2-oxo-1-[[2'-(H-tetrazol-5-yl)[1,1'-biphenyl]-4-methyl]-1H-1-benzazepin-3-yl]butanamide, β-cyclodextrin, palmitoyl carnitine chloride, micro-crystalline cellulose and starct (2:15:10:15:10). The preparation was extruded through a screen ([…]) and spheronized. […]

With C[C@@H](O)CNC(C)(C)CC(=O)N[C@@H]1CCc2ccccc2N(Cc2ccc(-c3ccccc3-c3nnn[nH]3)cc2)C1=O [[R-(R*,R*)]-3-[(2-hydroxypropyl)amino]-3-methyl-N-[2,3,4,5-tetrahydro-2-oxo-1-[[2'-(H-tetrazol-5-yl)[1,1'-biphenyl]-4-yl]methyl]-1H-1-benzazepin-3-yl]butanamide] the route of excretion [1] was “excreted almost exclusively unchanged in the bile”, the dose excreted ([1]; rat, bile, after an IV dose, read-out: drug found in the bile) was 92% and the Fa at 3.5 h ([2]; palmitoyl carnitine chloride 0 mg/kg, β-cyclodextrin 0 mg/kg) was 4.98 ± 5.67%. It also gave a Fa at 3.5 h ([2]; palmitoyl carnitine chloride 0 mg/kg, β-cyclodextrin 7.5 mg/kg) of 3.1 ± 1.59%, a Fa at 3.5 h ([2]; palmitoyl carnitine chloride 0 mg/kg, β-cyclodextrin 15 mg/kg) of 12 ± 7.23% and a Fa at 3.5 h ([2]; palmitoyl carnitine chloride 5 mg/kg, β-cyclodextrin 0 mg/kg) of 11.9 ± 2.6%. The Fa at 3.5 h ([2]; palmitoyl carnitine chloride 5 mg/kg, β-cyclodextrin 7.5 mg/kg) was 14 ± 5.4%, the Fa at 3.5 h ([2]; palmitoyl carnitine chloride 5 mg/kg, β-cyclodextrin 15 mg/kg) was 20.4 ± 15.2% and the Fa at 3.5 h ([2]; palmitoyl carnitine chloride 10 mg/kg, β-cyclodextrin 0 mg/kg) was 22.6 ± 13.5%. For the same compound, the Fa at 3.5 h ([2]; palmitoyl carnitine chloride 10 mg/kg, β-cyclodextrin 7.5 mg/kg) was 29.6 ± 8.2%, the Fa at 3.5 h ([2]; palmitoyl carnitine chloride 10 mg/kg, β-cyclodextrin 15 mg/kg) was 49.3 ± 13.4% and the AUC at 4 h ([3]; dog, blood, absence of β-cyclodextrin, read-out: area under concentration-time curve ± standard deviations (converted)) was 6.02 ng·h/mL. For the same compound, the area under concentration-time curve ± standard deviations ([3]; presence of β-cyclodextrin (7.5 mg/kg)) was 19.8 ± 8.18 ng·h/mL, the Fa ([4]; 2 mg/kg, powder, 2 mg/kg drug, palmitoyl carnitine chloride 0 mg/kg, β-cyclodextrin 0 mg/kg, read-out: absorption determined as in Example 1 (± standard deviation)) was 0.18 ± 0.26% and the Fa ([4]; 2 mg/kg, powder, 2 mg/kg drug, palmitoyl carnitine chloride 10 mg/kg, β-cyclodextrin 0 mg/kg, read-out: absorption determined as in Example 1 (± standard deviation)) was 3.3 ± 1.9%. For the same compound, the Fa ([4]; 2 mg/kg, powder, 2 mg/kg drug, palmitoyl carnitine chloride 10 mg/kg, β-cyclodextrin 7.5 mg/kg, read-out: absorption determined as in Example 1 (± standard deviation)) was 8.9 ± 7.6%, the Fa ([4]; 2 mg/kg, powder, 2 mg/kg drug, palmitoyl carnitine chloride 10 mg/kg, β-cyclodextrin 15 mg/kg, read-out: absorption determined as in Example 1 (± standard deviation)) was 14.8 ± 9.8% and the Fa ([4]; 2 mg/kg, tablet of lyophilized formulation containing β-cyclodextrin (15 mg/ml in solution), 2 mg/kg drug, 10 mg/kg palmitoyl carnitine chloride, read-out: percentage absorption) was 28.2 ± 18.3%. The Fa ([4]; spheronized beads, drug:β-cyclodextrin:palmitoyl carnitine chloride:microcrystalline cellulose:starch 2:15:10:15:10, read-out: absorption) was 8.8% and the Fa ([4]; tablet of lyophilized formulation containing hydroxypropyl-β-cyclodextrin (20 mg/ml in solution), 2 mg/kg drug, 10 mg/kg palmitoyl carnitine chloride, read-out: percentage absorption) was 7.5 ± 6.2%.
